The values that follow come from patent publication US8183234B2, “Tricyclic guanidine derivatives as sodium-proton exchange inhibitors” (Piramal Life Sciences Limited, priority 2004, dated 2012).

Where a name gives a salt, the structure may show the parent alone.

T1 sequence (P19634 whole entry, canonical isoform): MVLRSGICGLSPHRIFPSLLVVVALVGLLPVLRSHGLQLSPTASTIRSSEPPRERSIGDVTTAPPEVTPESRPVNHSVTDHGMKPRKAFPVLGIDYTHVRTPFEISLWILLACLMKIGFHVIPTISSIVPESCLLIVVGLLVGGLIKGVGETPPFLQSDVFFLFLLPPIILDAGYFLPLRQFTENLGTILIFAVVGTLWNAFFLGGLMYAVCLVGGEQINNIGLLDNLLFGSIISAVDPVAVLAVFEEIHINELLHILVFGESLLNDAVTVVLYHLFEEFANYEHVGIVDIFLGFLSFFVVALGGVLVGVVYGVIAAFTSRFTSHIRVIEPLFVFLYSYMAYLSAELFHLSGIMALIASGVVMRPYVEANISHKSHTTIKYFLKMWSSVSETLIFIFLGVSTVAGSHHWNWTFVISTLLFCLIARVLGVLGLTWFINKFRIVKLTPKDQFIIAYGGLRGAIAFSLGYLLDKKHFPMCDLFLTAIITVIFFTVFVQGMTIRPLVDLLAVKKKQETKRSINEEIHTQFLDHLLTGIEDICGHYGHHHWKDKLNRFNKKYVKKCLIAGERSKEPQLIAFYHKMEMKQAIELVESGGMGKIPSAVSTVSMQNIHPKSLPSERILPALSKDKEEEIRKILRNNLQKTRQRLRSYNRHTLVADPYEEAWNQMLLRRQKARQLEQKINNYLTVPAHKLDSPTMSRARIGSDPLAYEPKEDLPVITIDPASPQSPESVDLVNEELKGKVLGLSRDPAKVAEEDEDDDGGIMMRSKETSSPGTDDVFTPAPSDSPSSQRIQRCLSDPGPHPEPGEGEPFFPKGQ

The experiment addresses T1, NHE-1 (Homo sapiens, UniProt P19634).
T1 construct: NHE-1 isoform which is predominantly present in human platelets; endogenous in cells; host or cells: human platelets (platelet rich plasma from blood of healthy volunteers)
Briefly: Primary screening assay in human platelets (acidified human platelet swelling assay). The format is cell-based. As to conditions: concentration required to inhibit 50% of NHE-1 activity in isolated human platelets; mean of three readings, PRP from three donors. The procedure: Experiments on inhibition of NHE in human platelets are based on those published in (Cardiovasc. Res. 29: 260-268, (1995), J. Med. Chem. 41, 3736-3747, (1998)) Blood (150 mL) collected in a siliconized glass bottle from healthy volunteers was treated with aqueous acid citrate dextrose (ACD) solution (25 mL) [composition: citric acid (38 mM/L), glucose (136 mM/L) and trisodium citrate (75 mM/L)] and immediately centrifuged at 200 g for 20 min. The platelet rich plasma (PRP) was separated and a platelet count carried out using a Beckman Coulter A^c T® cell counter. The cell count was adjusted to 3×10^8 platelets/mL using platelet free plasma.
Activation of Na^+/H^+ exchanger by intracellular acidification: 150 μL of PRP was added to 750 μL of propionate buffer [composition: KCl (5 mM/L), CaCl2 (1 mM/L), MgCl2 (1 mM/L), glucose (10 mM/L), HEPES (20 mM/L), sodium propionate (140 mM/L)] of pH 6.6, in a cuvette. Optical density was recorded at 630 nm using a Shimadzu spectrophotometer (UV 1601). The micromolar concentrations of a few representative compounds required to inhibit 50% of NHE-1 activity (IC50), in isolated human platelets (acidified human platelet swelling assay) is shown in Table 2. IC50 values are the mean of three experimental readings using PRP isolated from the blood of three different donors.
Consider `Cc1cc(C(=O)N=C(N)N)cc2c1Oc1c(Cl)cc(N3CCN(C4CC4)CC3=O)cc1CS2(=O)=O` [Example 58, N-[4-Chloro-2-(4-cyclopropyl-2-oxo-piperazin-1-yl)-6-methyl-10,10-dioxo-10,11-dihydro-5-oxa-10lambda*6*-thia-dibenzo[a,d]cycloheptene-8-carbonyl]-guanidine dimesylate], for which the IC50 (commonly the midpoint of a concentration-inhibition curve) was determined as 87 nM.

Compound `Cc1cc(C(=O)N=C(N)N)cc2c1Oc1c(Cl)cc(S(=O)(=O)NCc3cccnc3)cc1CS2(=O)=O` [Example 52, 4-Chloro-8-guanidinocarbonyl-6-methyl-10,10-dioxo-10,11-dihydro-5-oxa-10lambda*6*-thia-dibenzo[a,d]cycloheptene-2-sulfonic acid (pyridin-3-ylmethyl)-amide dimesylate] returned an IC50 of 80 nM.

Compound `NC(N)=NC(=O)c1cc(Cl)c2c(c1)S(=O)(=O)Cc1cccc(Cl)c1O2` [Example 45, 4,6-Dichloro-10,10-dioxo-10,11-dihydro-5-oxa-10lambda*6*-thia-dibenzo[a,d]cycloheptene-8-carbonylguanidine, methane sulfonic acid salt] had an IC50 of 70 nM. This IC50 and that of the compound before are within 1.5-fold of each other.

Compound `Cc1cc(C(=O)N=C(N)N)cc2c1Oc1c(Cl)cc(N)cc1CS2(=O)=O` [Example 35, N-(2-Amino-4-chloro-6-methyl-10,10-dioxo-10,11-dihydro-5-oxa-10lambda*6*-thia-dibenzo[a,d]cycloheptene-8-carbonyl)-guanidine, methane sulfonic acid salt] returned an IC50 of 20 nM. Against the preceding compound, the IC50 is about 3.5-fold lower.
